# Data published in patent US9920039B2, “1,2,4-Oxadiazol compounds active against gram-positive pathogens” (UNIVERSITÀ DEGLI STUDI DI MILANO—BICOCCA, priority 2013, dated 2018).
# Like-named read-outs stand apart in the source and are kept apart here.
# Assays:
# ATCC E. faecalis 29212 = experiment: MIC by broth microdilution (Table 5); assay type: cell-based, Enterococcus faecalis
# Description: (§1) Dimethyl sulfoxide (DMSO) was used as solvent for all the synthesized compounds. An equal volume of the bacterial inoculum (1×10^6 CFU/mL) was added to each well on the microtitre plate containing 0.05 mL of the serial antibiotic dilutions. The microtitre plate was then incubated at 37° C. for 18-24 h after which each well was analysed for the presence of bacterial growth. The MIC was defined as the lowest concentration of antimicrobial agent able to cause inhibition of bacterial growth as shown by the lack of turbidity of the culture medium. […] Final DMSO concentrations were also taken into account in all the biological assays.
# [1] = tested on: 11 Linezolid-resistant CoNS; experiment: MIC summary on strain panel (Table 5); assay type: cell-based, Staphylococcus epidermidis, Staphylococcus hominis; settings: 11 Linezolid-resistant CoNS
# Source text: as §1, with “The in vitro antibacterial activity of the new agents was studied by determining their minimum inhibitory concentrations (MICs) by means of the broth microdilution method according to the Clinical and Laboratory Standards Institute (CLSI) guidelines.[16] Briefly, serial 2-fold dilutions of each compound were made using the Cation adjusted Mueller-Hinton broth (CAMHB) in microtitre plates with 96 wells. Dimethyl” for “Dimethyl”
# [2] = tested on: Staphylococcus aureus ATCC 29213; experiment: MIC by broth microdilution (CLSI); assay type: cell-based
# Source text: (§2) Several well characterized for their antibiotic-susceptibility phenotype Staphylococcus aureus isolates were used for the determination of the in vitro antibacterial activity of the studied compounds. In particular, S. aureus ATCC 29213 reference standard strain and S. aureus M923 (collection strain) were used as MSSA strains. Among MRSA, S. aureus MU50 (ATCC 700699) reference standard strain and two collection strains (433 and F511) were used for susceptibility assays.
# as §1, with “The in vitro antibacterial activity of the new agents was studied by determining their minimum inhibitory concentrations (MICs) by means of the broth microdilution method according to the Clinical and Laboratory Standards Institute (CLSI) guidelines.[16] Briefly, serial 2-fold dilutions of each compound were made using the Cation adjusted Mueller-Hinton broth (CAMHB) in microtitre plates with 96 wells. Dimethyl” for “Dimethyl”
# (§3) The antimicrobial activities, summarized in Table 2, were determined by the “gold standard” method of broth microdilution, as recommended by the Clinical Laboratory Standards Institute (CLSI) (See the Experimental Section). […] In detail, the bacterial strains were tested: Staphylococcus aureus ATCC 29213, a clinical strain of methicillin-susceptible S. aureus (M923), S. aureus MU50 (methicillin-resistant—MRSA), and two methicillin-resistant clinical strains, 433 and F511.
# (§4) The antimicrobial activities, summarized in Table 3, were determined by the “gold standard” method of broth microdilution, as recommended by the Clinical Laboratory Standards Institute (CLSI) (See the Experimental Section). The minimum inhibitory concentration (MIC) values were expressed in μg/mL. […] In detail, the tested bacterial strains were: Staphylococcus aureus ATCC 29213, a clinical strain of methicillin-susceptible S. aureus (M923), S. aureus MU50 (methicillin-resistant—MRSA) strain, and two methicillin-resistant clinical strains, 433 and F511.
# [3] = tested on: 45 Linezolid-susceptible MRSA; experiment: MIC summary on strain panel (Table 5); assay type: cell-based, Staphylococcus aureus
# Source text: In particular, eleven linezolid-resistant coagulase-negative staphylococci (CoNS) (ten S. epidermidis and one S. hominis) were investigated. The eleven linezolid-resistant strains were isolated in several hospital settings between 2010 and 2011 from positive blood cultures. For the […], recently isolated from patients with cystic fibrosis, showing different profiles of multi-resistance to different classes of antimicrobials, was used (Table 4 and 5).
# as §1, with “The in vitro antibacterial activity of the new agents was studied by determining their minimum inhibitory concentrations (MICs) by means of the broth microdilution method according to the Clinical and Laboratory Standards Institute (CLSI) guidelines.[16] Briefly, serial 2-fold dilutions of each compound were made using the Cation adjusted Mueller-Hinton broth (CAMHB) in microtitre plates with 96 wells. Dimethyl” for “Dimethyl”
# [4] = tested on: Linezolid-resistant S. epidermidis Strains 1-10; experiment: MIC by broth microdilution (Table 5); assay type: cell-based, Staphylococcus epidermidis
# Source text: as §1, with “The in vitro antibacterial activity of the new agents was studied by determining their minimum inhibitory concentrations (MICs) by means of the broth microdilution method according to the Clinical and Laboratory Standards Institute (CLSI) guidelines.[16] Briefly, serial 2-fold dilutions of each compound were made using the Cation adjusted Mueller-Hinton broth (CAMHB) in microtitre plates with 96 wells. Dimethyl” for “Dimethyl”
# [5] = tested on: Linezolid-resistant S. hominis Strain 11; experiment: MIC by broth microdilution (Table 5); assay type: cell-based, Staphylococcus hominis; settings: S. hominis Strain 11, linezolid-resistant
# Source text: as §1, with “The in vitro antibacterial activity of the new agents was studied by determining their minimum inhibitory concentrations (MICs) by means of the broth microdilution method according to the Clinical and Laboratory Standards Institute (CLSI) guidelines.[16] Briefly, serial 2-fold dilutions of each compound were made using the Cation adjusted Mueller-Hinton broth (CAMHB) in microtitre plates with 96 wells. Dimethyl” for “Dimethyl”
# [6] = tested on: 12 MRSE all LZD sensitive; experiment: MIC on strain panel (Table 4); assay type: cell-based, Staphylococcus epidermidis; settings: for MIC50 / MIC90: Staphylococcus epidermidis; for MIC50: read-out: MIC50; for MIC90: read-out: MIC90
# Source text: as §1, with “The in vitro antibacterial activity of the new agents was studied by determining their minimum inhibitory concentrations (MICs) by means of the broth microdilution method according to the Clinical and Laboratory Standards Institute (CLSI) guidelines.[16] Briefly, serial 2-fold dilutions of each compound were made using the Cation adjusted Mueller-Hinton broth (CAMHB) in microtitre plates with 96 wells. Dimethyl” for “Dimethyl”
# [7] = tested on: 6 ATCC (4MSSA, 2 MRSA)plus45 MRSA all LZD sensitive; experiment: MIC on strain panel (Table 4); assay type: cell-based, Staphylococcus aureus; settings: 6 ATCC plus 45 MRSA; for MIC-range: tested range ≤0.06 - >128; for MIC50 / MIC90: Staphylococcus aureus; for MIC50: read-out: MIC50; for MIC90: read-out: MIC90
# Source text: as §1, with “The in vitro antibacterial activity of the new agents was studied by determining their minimum inhibitory concentrations (MICs) by means of the broth microdilution method according to the Clinical and Laboratory Standards Institute (CLSI) guidelines.[16] Briefly, serial 2-fold dilutions of each compound were made using the Cation adjusted Mueller-Hinton broth (CAMHB) in microtitre plates with 96 wells. Dimethyl” for “Dimethyl”
# [8] = tested on: methicillin-susceptible S. aureus (M923); experiment: MIC by broth microdilution (CLSI); assay type: cell-based, Staphylococcus aureus; settings: Staphylococcus aureus
# Source text: as §2
# as §1, with “The in vitro antibacterial activity of the new agents was studied by determining their minimum inhibitory concentrations (MICs) by means of the broth microdilution method according to the Clinical and Laboratory Standards Institute (CLSI) guidelines.[16] Briefly, serial 2-fold dilutions of each compound were made using the Cation adjusted Mueller-Hinton broth (CAMHB) in microtitre plates with 96 wells. Dimethyl” for “Dimethyl”
# as §3, §4
# [9] = tested on: S. aureus MU50 (ATCC 700699), methicillin-resistant (MRSA); experiment: MIC by broth microdilution (CLSI); assay type: cell-based, Staphylococcus aureus
# Source text: as §2
# as §1, with “The in vitro antibacterial activity of the new agents was studied by determining their minimum inhibitory concentrations (MICs) by means of the broth microdilution method according to the Clinical and Laboratory Standards Institute (CLSI) guidelines.[16] Briefly, serial 2-fold dilutions of each compound were made using the Cation adjusted Mueller-Hinton broth (CAMHB) in microtitre plates with 96 wells. Dimethyl” for “Dimethyl”
# as §3, §4
# MRSA clinical strain 433 = experiment: MIC by broth microdilution (CLSI); assay type: cell-based, Staphylococcus aureus; settings: MRSA 433
# Source text: as §2
# as §1, with “The in vitro antibacterial activity of the new agents was studied by determining their minimum inhibitory concentrations (MICs) by means of the broth microdilution method according to the Clinical and Laboratory Standards Institute (CLSI) guidelines.[16] Briefly, serial 2-fold dilutions of each compound were made using the Cation adjusted Mueller-Hinton broth (CAMHB) in microtitre plates with 96 wells. Dimethyl” for “Dimethyl”
# as §3, §4
# [10] = tested on: MRSA clinical strain F511; experiment: MIC by broth microdilution (CLSI); assay type: cell-based, Staphylococcus aureus; settings: Staphylococcus aureus
# Source text: as §2
# as §1, with “The in vitro antibacterial activity of the new agents was studied by determining their minimum inhibitory concentrations (MICs) by means of the broth microdilution method according to the Clinical and Laboratory Standards Institute (CLSI) guidelines.[16] Briefly, serial 2-fold dilutions of each compound were made using the Cation adjusted Mueller-Hinton broth (CAMHB) in microtitre plates with 96 wells. Dimethyl” for “Dimethyl”
# as §3, §4
# [11] = tested on: mitochondrial protein synthesis (OXPHOS complexes) in HepG2 cells; experiment: Oxidative phosphorylation (OXPHOS) assay; settings: HepG2; linezolid 100 μg/mL, A4bS 10-100 μg/mL; vs non-treated cells; FIG. 6
# Source text: This assay (Nadaciva S. et al., 2010) is used to monitor the level of mitochondrial protein synthesis of some key proteins in the process of oxidative phosphorylation of eukaryotic cells, comparing it with the level of synthesis of mitochondrial proteins encoded by nuclear DNA. This study allows us to analyze the effects of A4bS on the proteins encoded by mitochondrial DNA (mtDNA).
# The data represent the mean±SEM of three separate experiments performed in triplicate. Statistical significance is obtained by the Student's test compared to the […].
# [12] = ATCC S. aureus 29213, resolved enantiomers, Table 5, read-out: MIC
# [13] = S. epidermidis Strain 1, linezolid-resistant
# [14] = S. epidermidis Strain 2, linezolid-resistant
# [15] = S. epidermidis Strain 3, linezolid-resistant
# [16] = S. epidermidis Strain 4, linezolid-resistant
# [17] = S. epidermidis Strain 5, linezolid-resistant
# [18] = S. epidermidis Strain 6, linezolid-resistant
# [19] = S. epidermidis Strain 7, linezolid-resistant
# [20] = S. epidermidis Strain 8, linezolid-resistant
# [21] = S. epidermidis Strain 9, linezolid-resistant
# [22] = S. epidermidis Strain 10, linezolid-resistant
# [23] = MSSA M923, racemic form, Table 3, read-out: MIC
# [24] = Staphylococcus aureus, racemic form, Table 3, read-out: MIC
# [25] = racemic form, Table 3, read-out: MIC
# [26] = Staphylococcus aureus, racemic mixture, Table 2, read-out: MIC
smiles,measurement,setting,value
CC(=S)NC[C@H]1CN(c2ccc(-c3nc(C)no3)cc2)C(=O)O1 [Compound A4aS],MIC,ATCC E. faecalis 29212,4 µg/mL
same,MIC50,[1],8 µg/mL
same,MIC90,[1],32 µg/mL
same,MIC,[2]; [12],8 µg/mL
same,MIC50,[3],2 µg/mL
same,MIC,[4]; [13],8 µg/mL
same,MIC,[4]; [14],32 µg/mL
same,MIC,[4]; [15],4 µg/mL
same,MIC,[4]; [16],32 µg/mL
same,MIC,[4]; [17],4 µg/mL
same,MIC,[4]; [18],4 µg/mL
same,MIC,[4]; [19],32 µg/mL
same,MIC,[4]; [20],32 µg/mL
same,MIC,[4]; [21],1 µg/mL
same,MIC,[4]; [22],8 µg/mL
same,MIC,[5],8 µg/mL
CC(=S)NC[C@@H]1CN(c2ccc(-c3nc(C)no3)c(F)c2)C(=O)O1 [Compound A4bR],MIC,ATCC E. faecalis 29212,32 µg/mL
same,MIC50,[1],128 µg/mL
same,MIC90,[1],128 µg/mL
same,MIC,[2]; [12],64 µg/mL
same,MIC50,[3],128 µg/mL
same,MIC,[4]; [13],128 µg/mL
same,MIC,[4]; [14],> 128 µg/mL
same,MIC,[4]; [15],> 128 µg/mL
same,MIC,[4]; [16],128 µg/mL
same,MIC,[4]; [17],128 µg/mL
same,MIC,[4]; [18],64 µg/mL
same,MIC,[4]; [19],> 128 µg/mL
same,MIC,[4]; [20],128 µg/mL
same,MIC,[4]; [21],> 128 µg/mL
same,MIC,[4]; [22],128 µg/mL
same,MIC,[5],128 µg/mL
"CNC(=S)NCC1CN(c2ccc(-c3nc(C)no3)c(F)c2)C(=O)O1 (racemic) [Compound B4b, 1-((3-(3-fluoro-4-(3-methyl-1,2,4-oxadiazol-5-yl)phenyl)-oxazolidin-2-one-5-yl)methyl)-3-methylthiourea]",MIC50,[6],64 µg/mL
same,MIC90,[6],128 µg/mL
same,MIC,"[2]; Staphylococcus aureus, ATCC29213, ATCC 29213, racemic form, Table 3, read-out: MIC",6.25 µg/mL
same,MIC-range,[7],0.5 to 16 µg/mL
same,MIC50,[7],4 µg/mL
same,MIC90,[7],16 µg/mL
same,melting point,,170.7 to 172.4 °C
same,MIC,[8]; [23],6.25 µg/mL
same,MIC,[9]; [24],1.6 µg/mL
same,MIC,MRSA clinical strain 433; [24],3.12 µg/mL
same,MIC,[10]; [25],6.25 µg/mL
"CC(=O)NC[C@H]1CN(c2ccc(N3CCOCC3)c(F)c2)C(=O)O1 [Linezolid, reference compound]",MIC range,[6],32 to 64 µg/mL
same,MIC50,[6],32 µg/mL
same,MIC90,[6],64 µg/mL
same,MIC,"[2]; ATCC 29213, racemic form, Table 3",≤0.4 µg/mL
same,MIC,"[2]; Staphylococcus aureus, ATCC29213, ATCC 29213, racemic mixture, Table 2, read-out: MIC",≤ 0.4 µg/mL
same,effect on proteins synthesized by mtDNA (in words),[11],significant decrease
same,MIC-range,[7],0.25 to 16 µg/mL
same,MIC50,[7],2 µg/mL
same,MIC90,[7],4 µg/mL
same,MIC,"[8]; MSSA, racemic mixture, Table 2",3.13 µg/mL
same,MIC,[8]; [23],3.12 µg/mL
same,MIC,[9]; [26],0.8 µg/mL
same,MIC,"[9]; racemic form, Table 3",0.8 µg/mL
same,MIC,"MRSA clinical strain 433; racemic form, Table 3",1.6 µg/mL
same,MIC,MRSA clinical strain 433; [26],1.6 µg/mL
same,MIC,"[10]; MRSA, racemic mixture, Table 2",3.13 µg/mL
same,MIC,[10]; [25],3.12 µg/mL
